Like-named read-outs stand apart in the source and are kept apart here. Ends that are not written are not given here.
Key:
[1] = molecular target: T1, ER LBD (Homo sapiens, UniProt P03372); assay: Estrogenicity score in COS-7 cells co-expressing pSimer-R2 and pSimer-G6
T1 sequence (P03372 305-550) 1: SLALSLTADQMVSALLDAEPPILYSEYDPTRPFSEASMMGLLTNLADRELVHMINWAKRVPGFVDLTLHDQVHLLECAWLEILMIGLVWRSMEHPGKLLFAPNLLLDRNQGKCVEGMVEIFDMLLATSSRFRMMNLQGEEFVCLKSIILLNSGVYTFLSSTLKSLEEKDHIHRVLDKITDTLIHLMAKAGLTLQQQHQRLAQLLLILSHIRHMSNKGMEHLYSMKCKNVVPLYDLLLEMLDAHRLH
T1 sequence (P03372 305-550) 2: T1 sequence (P03372 305-550) 1

[2] = molecular target: T1, ER LBD; assay: Estrogenicity score in COS-7 cells cotransfected with pSimer-R2 and pSimer-G4; format: cell-based; design: cDNAs of ER LBD (305-550 AA) and phosphorylation-recognition domain of Src (SH2) were amplified by PCR; expressed in transfected cells; host or cells: COS-7
Procedure: A COS-7 cells carrying both pSimer-R2 and pSimer-G4 were simulated with ligands for 20 minutes, and spectrum of luminescence emitted as a result with all wavelengths was observed (FIG. 11). […] The term genomic signal used herein refers to an intracellular signal involved in conventional protein expression in the nucleus. On the other hand, the term non-genomic signal means an intracellular signal not accompanying conventional protein expression. Typically, this is the general classification of intracellular signal transductions.
Further, from ratio of luminescence intensities between red signal (610 nm) and green signal (540 nm) induced by a ligand, it is possible to show numerically whether the measured ligand tends to genomic activity (also referred to as agonistic activity herein) or nongenomic activity (also referred to as antagonistic activity herein).

[3] = molecular target: T2, ER LBD (Homo sapiens, UniProt P03372); assay: Ligand sensitivity of various cell lines carrying pSimer-R2 (red luminescence); settings: pSimer-R2 in HeLa, COS-7, NIH 3T3 and MCF-7 cells; 20 minutes stimulation; each cell line
T2 sequence (P03372 305-550): T1 sequence (P03372 305-550) 1

[4] = test system: COS-7 cells; assay: Optimal LXXLL motif: ligand sensitivity of COS-7 cells carrying pSimer-G plasmids; format: cell-based, African Green Monkey; settings: E2 or OHT for 20 minutes, compared among six pSimer-G plasmids
Procedure: As shown in the above (Table 1), six kinds of LXXLL motifs as those can be applied to each of […] backbones were prepared, and introduced into […]. Ligand sensitivity of COS-7 cells carrying either one of the six kinds of plasmids was measured (FIG. 8). […] Next, spectrum from the cells carrying […]6 with all wavelengths was measured, provided ligand was present and absent (FIG. 9).

[5] = molecular target: T2, ER LBD
[6] = molecular target: T2, ER LBD; remark: listed apart in the source
[7] = molecular target: T2, ER LBD; remark: listed apart in the source
[8] = [variation of luminescence intensity at 540 nm]/[variation at 610 nm], COS-7 cells, pSimer-R2 + pSimer-G6, 20 minutes stimulation
[9] = [variation of luminescence intensity at 540 nm]/[variation at 610 nm], COS-7 cells, pSimer-R2 + pSimer-G4, 20 minutes stimulation

## C[C@]12CC[C@@H]3c4ccc(O)cc4C[C@@H](CCCCCCCCC[S+]([O-])CCCC(F)(F)C(F)(F)F)[C@H]3[C@@H]1CC[C@@H]2O (stereo partly shown) [ICI, ICI182780]
[1]; [8]
  Estrogenicity score: 1.08
[2]; [9]
  Estrogenicity score: 0.86
[3]
  increase in luminescence intensity: remarkable luminescence intensity

## C[C@]12CC[C@H]3[C@@H](CCC4=CC(=O)CC[C@@]43C)[C@@H]1CC[C@@H]2O [T, testosterone]
[1]; [8]
  Estrogenicity score: 1.07
[2]; [9]
  Estrogenicity score: 1.07

## pSimer-G6: green luminescent probe, Rip140 motif 946 VCNESLLLQKLVNFS 932 (also: within green luminescent probe)
[4]
  luminescence intensity ratio relative to control (S/N ratio): strongest luminescence intensity ratio relative to control

## 4-hydroxytamoxifen [OHT]
[1]
  Estrogenicity score: 0.38
[5]
  time of peak luminescence intensity after stimulation: 15 min
[2]
  Estrogenicity score: 0.62
[3]
  increase in luminescence intensity: remarkable luminescence intensity
[6]
  concentration at which luminescence intensity peaked: about 10^−5 M
[7]
  concentration at which luminescence intensity peaked: about 10^−5 M

## CC(=O)[C@H]1CC[C@H]2[C@@H]3CCC4=CC(=O)CC[C@]4(C)[C@H]3CC[C@]12C [progesterone]
[1]; [8]
  Estrogenicity score: 1.06

Source: patent US20090123954A1, “MULTICOLOR BIOLUMINESCENT VISUALIZATION PROBE SET, OR SINGLE-MOLECULE-FORMAT MULTICOLOR BIOLUMINESCENT VISUALIZATION PROBE” (National Institute of Advanced Industrial Science and …, priority 2007, published 2009)
